Data from article PMC9645260, “Small-molecule inhibitors of P-Rex guanine-nucleotide exchange factors” (Small GTPases, 2022).

What was measured:
[1] = target: T1, full-length P-Rex2 (Homo sapiens, UniProt Q70Z35); test: Liposome-based GEF activity assay, PIP3-stimulated full-length P-Rex2; type: biochemical; settings: 40 nM P-Rex2, read-out: inhibition of PIP3-stimulated Rac-GEF activity of full-length P-Rex2
T1 construct: Full-length N-terminally EE-tagged P-Rex1, P-Rex2; made in house; host or cells: Sf9 cells (baculovirus)
Experimental: (§1) Full-length N-terminally EE-tagged P-Rex1, P-Rex2, the P-Rex1 DH and DHPH domains and the P-Rex2 DH domain were produced in Sf9 cells using baculoviral transduction and were purified using anti-EE beads, as previously described. Briefly, frozen pellets from 500 ml of Sf9 culture infected with P-Rex expressing high-titre baculovirus were resuspended in ice-cold lysis Sf9-cell lysis buffer 2 (1x PBS, 1% Triton X-100, 5 mM EGTA, 1 mM EDTA, 25 mM NaF, 20 mM β-glycerophosphate, 1 mM DTT, 100 µM PMSF, 10 μg/ml each of leupeptin, pepstatin A, aprotinin and antipain) for 5 min and then ultracentrifuged at 118,000 × g for 1 h at 4°C. Supernatants were incubated with pre-washed anti-EE beads for 90 min on ice with end-over-end rotation. […] Protein concentration and purity were determined by coomassie staining of SDS-PAGE gels. […]
(§2) Liposome-based GEF activity assays were carried out essentially as described, except that GEFs were incubated with inhibitor compounds prior to the assay. […] Small GTPases were isolated using anti-EE antibody-coupled Sepharose beads or glutathione Sepharose beads, as appropriate, by incubation on ice for 90 min with end-over-end rotation, four washes in ice-cold wash buffer and resuspension of beads in Ultima Gold scintillation fluid (Perkin Elmer). ^35S-GTPγS incorporation was assessed by scintillation counting (Packard 1600TR, Liquid Scintillation Analyser).

[2] = target: T2, ITSN1 (DHPH) (Homo sapiens, UniProt Q15811); test: Liposome-based GEF activity assay, ITSN1; type: biochemical; settings: 10 µM, 100 nM ITSN1 DHPH
T2 construct: The ITSN1 DHPH domains and Ect2 DHPH domains, produced in and purified from bacteria; host or cells: bacteria
T2 sequence (Q15811 1229-1580 limits assumed): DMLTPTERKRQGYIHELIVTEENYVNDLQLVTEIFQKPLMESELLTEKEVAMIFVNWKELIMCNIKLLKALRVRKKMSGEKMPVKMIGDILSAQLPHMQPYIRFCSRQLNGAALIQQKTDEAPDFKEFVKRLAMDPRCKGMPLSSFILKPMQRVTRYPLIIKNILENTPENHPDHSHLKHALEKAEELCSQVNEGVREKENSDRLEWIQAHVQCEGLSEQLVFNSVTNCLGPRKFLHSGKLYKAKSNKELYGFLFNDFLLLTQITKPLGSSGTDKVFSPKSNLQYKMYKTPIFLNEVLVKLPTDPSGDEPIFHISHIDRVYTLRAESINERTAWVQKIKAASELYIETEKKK
Experimental: as §1, §2

[3] = test system: HEK-293 cells; test: Cell cycle stages by propidium iodide flow cytometry; type: cell-based
Experimental: Human embryonic kidney 293 (HEK-293) cells were grown at 37°C in a humidified 5% CO2 atmosphere in Dulbecco’s modified Eagle medium (DMEM, Gibco) supplemented with 10% foetal bovine serum (FBS), 100 units/ml penicillin and 100 µg/ml streptomycin. Cells were passaged by tryptic digest 1:4 approximately every 2 days. To measure cell cycle stages, 2 ml HEK293 cells were plated per well of a 6-well dish (Thermo Scientific, Nunc) at 10^5 cells/ml. After 24 h, the medium was replaced with fresh medium containing various concentrations of PREX-in1, as indicated, or 10 μM NSC23766, or vehicle control (0.1% DMSO), and cells were incubated for a further 24 h. The medium was removed but kept aside to recover any detached cells. Wells were washed with PBS, and cells recovered by trypsinization. Cell suspensions were pooled with the culture supernatant and centrifuged at 433 × g for 5 min at RT. Cells were washed in PBS, resuspended in ice-cold 70% ethanol/PBS, and incubated for 30 min at 4°C for fixation and permeabilization. Cells were washed once more in PBS, then stained with 50 µg/ml propidium iodide in PBS containing 100 µg/ml RNase for 30 min at 37°C. Cells were analysed by flow cytometry for the intensity of propidium iodide staining using a FACSCalibur flow cytometer. 10,000 cells were analysed per sample. Data analysis was done using FloJo software.

T1 sequence (Q70Z35 whole entry): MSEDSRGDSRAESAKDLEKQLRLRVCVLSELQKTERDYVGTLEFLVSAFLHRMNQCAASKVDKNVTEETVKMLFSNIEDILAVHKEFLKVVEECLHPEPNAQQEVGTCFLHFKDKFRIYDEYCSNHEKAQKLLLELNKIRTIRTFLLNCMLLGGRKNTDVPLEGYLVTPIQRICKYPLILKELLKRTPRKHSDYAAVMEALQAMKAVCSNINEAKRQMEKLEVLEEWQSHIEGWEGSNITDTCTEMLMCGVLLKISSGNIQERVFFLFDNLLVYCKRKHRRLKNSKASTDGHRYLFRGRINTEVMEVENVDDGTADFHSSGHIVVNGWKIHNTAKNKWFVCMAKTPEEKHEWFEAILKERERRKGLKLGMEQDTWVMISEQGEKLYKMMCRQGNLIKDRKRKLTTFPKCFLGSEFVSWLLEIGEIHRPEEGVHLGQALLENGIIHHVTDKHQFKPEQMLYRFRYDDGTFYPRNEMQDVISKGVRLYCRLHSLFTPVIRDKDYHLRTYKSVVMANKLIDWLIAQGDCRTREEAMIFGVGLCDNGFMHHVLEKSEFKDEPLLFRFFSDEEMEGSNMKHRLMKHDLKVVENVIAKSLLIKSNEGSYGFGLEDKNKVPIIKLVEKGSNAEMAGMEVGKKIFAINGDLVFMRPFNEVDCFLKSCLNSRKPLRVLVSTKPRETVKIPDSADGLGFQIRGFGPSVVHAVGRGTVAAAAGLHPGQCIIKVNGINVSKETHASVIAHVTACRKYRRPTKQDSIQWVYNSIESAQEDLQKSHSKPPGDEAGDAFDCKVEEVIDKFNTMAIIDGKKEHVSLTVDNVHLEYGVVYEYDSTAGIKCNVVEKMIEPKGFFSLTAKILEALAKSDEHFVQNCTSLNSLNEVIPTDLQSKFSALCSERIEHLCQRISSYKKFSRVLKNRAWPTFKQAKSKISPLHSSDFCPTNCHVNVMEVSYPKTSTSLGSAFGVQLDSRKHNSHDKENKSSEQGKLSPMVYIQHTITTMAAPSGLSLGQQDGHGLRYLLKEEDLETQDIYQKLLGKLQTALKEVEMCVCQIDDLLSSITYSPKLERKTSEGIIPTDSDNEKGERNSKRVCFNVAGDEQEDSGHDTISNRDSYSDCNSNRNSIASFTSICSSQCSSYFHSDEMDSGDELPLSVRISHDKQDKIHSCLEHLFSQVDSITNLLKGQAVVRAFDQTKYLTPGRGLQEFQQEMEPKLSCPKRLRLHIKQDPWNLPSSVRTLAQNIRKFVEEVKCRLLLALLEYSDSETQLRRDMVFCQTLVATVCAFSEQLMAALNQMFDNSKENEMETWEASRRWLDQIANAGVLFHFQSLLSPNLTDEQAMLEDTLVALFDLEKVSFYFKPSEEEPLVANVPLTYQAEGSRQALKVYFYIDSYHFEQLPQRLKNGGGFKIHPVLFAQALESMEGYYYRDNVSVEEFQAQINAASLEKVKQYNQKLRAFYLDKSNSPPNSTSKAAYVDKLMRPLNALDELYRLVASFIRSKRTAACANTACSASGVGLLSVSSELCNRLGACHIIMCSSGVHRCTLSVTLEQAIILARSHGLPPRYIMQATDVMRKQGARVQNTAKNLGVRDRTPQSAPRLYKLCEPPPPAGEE

## COc1ccc(-c2[nH]nc3c2C(c2ccc(-c4ccc(Cl)cc4)o2)C(C#N)=C(N)O3)cc1 (stereo not shown) [PREX-in1, 6-amino-4-[5-(4-chlorophenyl)-2-furyl]-3-(4-methoxyphenyl)-2,4-dihydropyrano[2,3-c]pyrazole-5-carbonitrile]
[1]
  inhibition at 10 µM: 82%
[2]
  effect on GEF activity of ITSN1: none of the other GEFs were affected
[3]; 1 µM
  cytotoxic effects: did not observe cytotoxic effects
[3]; 24 h treatment, 10 µM
  cell death (sub-G1 phase): promotes cell death
